According to ChEMBL document CHEMBL6177951, “Synthesis and anti-MRSA activity of quaternized small molecule antimicrobial peptide mimics based on norharmane” (Eur J Med Chem, 2025):
≈ marks a conversion by molar mass, not a printed value. Calls of active or inactive are those of the source. No cut-off for these calls is given here.

Experiments:
Staphylococcus aureus [1] = assay: Antibacterial activity against Staphylococcus aureus ATCC 33591 assessed as resistance development by measuring fold increase in MIC at 0.5 times MIC incubated for 8 hrs and measured after 15 passages; assay type: functional
Staphylococcus aureus [2] = assay: Antibacterial activity against Staphylococcus aureus ATCC 25923 assessed as inhibition of bacterial growth incubated for 14 hrs by two-fold serial dilution method; assay type: functional
Staphylococcus aureus [3] = assay: Antibacterial activity against Staphylococcus aureus ATCC 29213 assessed as inhibition of bacterial growth incubated for 14 hrs by two-fold serial dilution method; assay type: functional
Staphylococcus aureus [4] = assay: Antibacterial activity against Staphylococcus aureus CMCC 26003 assessed as inhibition of bacterial growth incubated for 14 hrs by two-fold serial dilution method; assay type: functional
Staphylococcus aureus [5] = assay: Antibacterial activity against methicillin-resistant Staphylococcus aureus ATCC 43300 assessed as inhibition of bacterial growth incubated for 14 hrs by two-fold serial dilution method; assay type: functional
Staphylococcus aureus [6] = assay: Antibacterial activity against methicillin-resistant Staphylococcus aureus ATCC 33591 assessed as inhibition of bacterial growth incubated for 14 hrs by two-fold serial dilution method; assay type: functional
Staphylococcus aureus [7] = assay: Antibacterial activity against methicillin-resistant Staphylococcus aureus clinical isolate M-13 incubated for 14 hrs by two-fold serial dilution method; assay type: functional
Staphylococcus aureus [8] = assay: Antibacterial activity against methicillin-resistant Staphylococcus aureus clinical isolate M-14 incubated for 14 hrs by two-fold serial dilution method; assay type: functional
Staphylococcus aureus [9] = assay: Antibacterial activity against methicillin-resistant Staphylococcus aureus clinical isolate M-15 incubated for 14 hrs by two-fold serial dilution method; assay type: functional
Staphylococcus aureus [10] = assay: Antibacterial activity against methicillin-resistant Staphylococcus aureus clinical isolate M-16 incubated for 14 hrs by two-fold serial dilution method; assay type: functional
Staphylococcus aureus [11] = assay: Antibacterial activity against methicillin-resistant Staphylococcus aureus clinical isolate M-17 incubated for 14 hrs by two-fold serial dilution method; assay type: functional
Staphylococcus aureus [12] = assay: Antibacterial activity against methicillin-resistant Staphylococcus aureus clinical isolate M-18 incubated for 14 hrs by two-fold serial dilution method; assay type: functional
Staphylococcus aureus [13] = assay: Antibacterial activity against methicillin-resistant Staphylococcus aureus clinical isolate M-19 incubated for 14 hrs by two-fold serial dilution method; assay type: functional
Staphylococcus aureus [14] = assay: Antibacterial activity against methicillin-resistant Staphylococcus aureus clinical isolate M-20 incubated for 14 hrs by two-fold serial dilution method; assay type: functional
Staphylococcus aureus [15] = assay: Antibacterial activity against methicillin-resistant Staphylococcus aureus clinical isolate M-21 incubated for 14 hrs by two-fold serial dilution method; assay type: functional
Staphylococcus aureus [16] = assay: Antibacterial activity against methicillin-resistant Staphylococcus aureus clinical isolate M-22 incubated for 14 hrs by two-fold serial dilution method; assay type: functional
Staphylococcus aureus [17] = assay: Antibacterial activity against methicillin-resistant Staphylococcus aureus clinical isolate M-23 incubated for 14 hrs by two-fold serial dilution method; assay type: functional
Staphylococcus aureus [18] = assay: Antibacterial activity against Staphylococcus aureus ATCC 33591 assessed as log reduction in bacterial growth at 1 times MIC measured at 6 hrs by time-kill kinetic assay; assay type: functional
Staphylococcus aureus [19] = assay: In vivo antibacterial activity against methicillin-resistant Staphylococcus aureus infected in female Kunming mouse skin infection model assessed as log reduction in bacterial load at 5 mg/kg measured after 48 hrs (reference value: 14.34 log10CFU/g); assay type: functional
Staphylococcus aureus [20] = assay: In vivo antibacterial activity against methicillin-resistant Staphylococcus aureus infected in female Kunming mouse skin infection model assessed as recovery of dorsal surface at 5 to 20 mg/kg measured after 48 hrs; assay type: functional, organism-based; settings: dose 5-20 mg/kg
Staphylococcus aureus [21] = assay: In vivo antibacterial activity against methicillin-resistant Staphylococcus aureus infected in female Kunming mouse skin infection model assessed as reduction in inflammatory cells at 5 to 20 mg/kg measured after 48 hrs by H and E staining based analysis; assay type: functional, organism-based; settings: dose 5-20 mg/kg

SMILES | MIC (Staphylococcus aureus [2]) [µg/mL] | MIC (Staphylococcus aureus [3]) [µg/mL] | MIC (Staphylococcus aureus [4]) [µg/mL] | MIC (Staphylococcus aureus [5]) [µg/mL] | MIC (Staphylococcus aureus [6]) [µg/mL] | other results
CCn1cc(C(=O)O)c(=O)c2cc(F)c(N3CCNCC3)cc21 [NORFLOXACIN] |  |  |  |  |  | fold change (FC) (Staphylococcus aureus [1]): 16
CCN(CC)CCn1c2ccccc2c2ccncc21 | 64 (≈ 239 µM) | 128 (≈ 479 µM) | 128 (≈ 479 µM) | 128 (≈ 479 µM) | 128 (≈ 479 µM) | 
C[n+]1ccc2c3ccccc3n(CC[N+](C)(C)C)c2c1.[I-].[I-] | 128 | > 128 | > 128 | > 128 | > 128 | 
CCCC[n+]1ccc2c3ccccc3n(CCN(CC)CC)c2c1.[Br-] | 16 | 128 | 16 | 64 | 64 | 
CN(C)CCn1c2ccccc2c2ccncc21 | 64 (≈ 267 µM) | 64 (≈ 267 µM) | > 128 | > 128 | 128 (≈ 535 µM) | 
c1ccc2c(c1)c1ccncc1n2CCCCCCCCCCn1c2ccccc2c2ccncc21 | > 128 | > 128 | > 128 | > 128 | > 128 | 
C[n+]1ccc2c3ccccc3n(CCCCCCCCCCn3c4ccccc4c4cc[n+](C)cc43)c2c1.[I-].[I-] | 2 | 1 | 0.5 | 2 | 0.5 | MIC (Staphylococcus aureus [7]): 1 µg/mL; MIC (Staphylococcus aureus [8]): 1 µg/mL; MIC (Staphylococcus aureus [9]): 2 µg/mL; MIC (Staphylococcus aureus [10]): 1 µg/mL; MIC (Staphylococcus aureus [11]): 2 µg/mL; MIC (Staphylococcus aureus [12]): 2 µg/mL; MIC (Staphylococcus aureus [13]): 2 µg/mL; MIC (Staphylococcus aureus [14]): 1 µg/mL; MIC (Staphylococcus aureus [15]): 2 µg/mL; MIC (Staphylococcus aureus [16]): 1 µg/mL; MIC (Staphylococcus aureus [17]): 2 µg/mL
CCCC[n+]1ccc2c3ccccc3n(CC[N+](C)(C)CCCC)c2c1.[Br-].[Br-] | 128 | > 128 | > 128 | > 128 | 128 | 
CC[N+](C)(CC)CCn1c2ccccc2c2cc[n+](C)cc21.[I-].[I-] | 128 | > 128 | > 128 | > 128 | > 128 | 
c1ccc2c(c1)[nH]c1cnccc12 [NORHARMANE] | 32 (≈ 190 µM) | 64 (≈ 381 µM) | 64 (≈ 381 µM) | 64 (≈ 381 µM) | 64 (≈ 381 µM) | 
CC[n+]1ccc2c3ccccc3n(CC[N+](C)(C)CC)c2c1.[Br-].[Br-] | 128 | > 128 | > 128 | > 128 | > 128 | 
c1ccc2c(c1)c1ccncc1n2CCCCCCCCCCCn1c2ccccc2c2ccncc21 | > 128 | > 128 | > 128 | > 128 | > 128 | 
CCCCC[n+]1ccc2c3ccccc3n(CC[N+](C)(C)CCCCC)c2c1.[Br-].[Br-] | 128 | > 128 | > 128 | > 128 | > 128 | 
CCN(CC)CCn1c2ccccc2c2cc[n+](CC)cc21.[Br-] | 32 | > 128 | 32 | > 128 | 128 | 
c1ccc2c(c1)c1ccncc1n2CCCCCCCCCCCCn1c2ccccc2c2ccncc21 | > 128 | > 128 | > 128 | > 128 | > 128 | 
C[n+]1ccc2c3ccccc3n(CCCCCCCCCn3c4ccccc4c4cc[n+](C)cc43)c2c1.[I-].[I-] | 4 | 2 | 0.5 | 4 | 0.5 | MIC (Staphylococcus aureus [7]): 1 µg/mL; MIC (Staphylococcus aureus [8]): 1 µg/mL; MIC (Staphylococcus aureus [9]): 4 µg/mL; MIC (Staphylococcus aureus [10]): 2 µg/mL; MIC (Staphylococcus aureus [11]): 4 µg/mL; MIC (Staphylococcus aureus [12]): 4 µg/mL; MIC (Staphylococcus aureus [13]): 4 µg/mL; MIC (Staphylococcus aureus [14]): 2 µg/mL; MIC (Staphylococcus aureus [15]): 4 µg/mL; MIC (Staphylococcus aureus [16]): 2 µg/mL; MIC (Staphylococcus aureus [17]): 4 µg/mL
CC[n+]1ccc2c3ccccc3n(CC[N+](CC)(CC)CC)c2c1.[Br-].[Br-] | 128 | > 128 | > 128 | > 128 | > 128 | 
C[n+]1ccc2c3ccccc3n(CCCCCCCCCCCCn3c4ccccc4c4cc[n+](C)cc43)c2c1.[I-].[I-] | 1 | 0.5 | 0.5 | 1 | 0.5 | MIC (Staphylococcus aureus [7]): 1 µg/mL; MIC (Staphylococcus aureus [8]): 1 µg/mL; MIC (Staphylococcus aureus [9]): 1 µg/mL; MIC (Staphylococcus aureus [10]): 1 µg/mL; MIC (Staphylococcus aureus [11]): 1 µg/mL; MIC (Staphylococcus aureus [12]): 1 µg/mL; MIC (Staphylococcus aureus [13]): 1 µg/mL; MIC (Staphylococcus aureus [14]): 1 µg/mL; MIC (Staphylococcus aureus [15]): 1 µg/mL; MIC (Staphylococcus aureus [16]): 1 µg/mL; MIC (Staphylococcus aureus [17]): 1 µg/mL
CCC[n+]1ccc2c3ccccc3n(CCN(CC)CC)c2c1.[Br-] | 32 | > 128 | 32 | 128 | 128 | 
CN[C@H](CC(C)C)C(=O)N[C@H]1C(=O)N[C@@H](CC(N)=O)C(=O)N[C@H]2C(=O)N[C@H]3C(=O)N[C@H](C(=O)N[C@H](C(=O)O)c4cc(O)cc(O)c4-c4cc3ccc4O)[C@H](O)c3ccc(c(Cl)c3)Oc3cc2cc(c3O[C@@H]2O[C@H](CO)[C@@H](O)[C@H](O)[C@H]2O[C@H]2C[C@](C)(N)[C@H](O)[C@H](C)O2)Oc2ccc(cc2Cl)[C@H]1O [VANCOMYCIN] |  |  |  |  |  | Activity (Staphylococcus aureus [18]): 2.74 log10CFU/ml; Activity (Staphylococcus aureus [19]): 4.99 log10CFU/g; Activity (Staphylococcus aureus [20]): Active; Activity (Staphylococcus aureus [21]): Active
CCC[n+]1ccc2c3ccccc3n(CC[N+](C)(C)CCC)c2c1.[Br-].[Br-] | 64 | > 128 | > 128 | > 128 | > 128 | 
CCCCC[n+]1ccc2c3ccccc3n(CCN(CC)CC)c2c1.[Br-] | 8 | 128 | 16 | 32 | 32 | 
c1ccc2c3c([nH]c2c1)CNCC3 [TRYPTOLINE] | 128 (≈ 743 µM) | > 128 | 128 (≈ 743 µM) | 128 (≈ 743 µM) | 128 (≈ 743 µM) | 
c1ccc2c(c1)c1ccncc1n2CCCCCCCCCn1c2ccccc2c2ccncc21 | > 128 | > 128 | > 128 | > 128 | > 128 | 
